Patent US20200207829A1, “CHIMERIC RECEPTORS” (Oxford University Innovation Limited, priority 2017, published 2020)

Biological target: T1, dCas9(N/C)-synLPAR1 (Homo sapiens, UniProt Q92633)
T1 construct: TEV cleavage site ENLYFQL (TCS(Q'L)) (C); P2A + puromycin resistance protein (C, cleaved yes); TEV cleavage site ENLYFQG (TCS(Q'G)) (C); T2A + MCP-P65-HSF1 (C, cleaved yes); expressed in transfected cells; host or cells: HTLA cells (HEK-293 stably expressing beta-arrestin2-TEV fusion)
Assay: LPA dose-response of dCas9(N/C)-synLPAR1 (EYFP activation score, HTLA cells)
Assay type: cell-based
Settings: sgEYFP, read-out: EC50 of LPA dose-dependent activation
Method: Transfection mixtures were vortexed for 10 seconds and incubated at room temperature for 20-30 minutes. Full media was removed from cells and replaced with experiment-specific transfection media prior to adding the DNA:PEI transfection mix as follows. For dCas9(N/C)-synBDKBR2 experiments, HTLA cells were transfected in DMEM+2% (v/v) FBS supplemented with bradykinin at indicated concentrations. The bradykinin transfection media was replaced after 20 hours with HTLA full media also supplemented with bradykinin, and incubated for an additional 24 hours. […]
For all EYFP reporter experiments, media was removed 44 or 48 hours post-transfection and cells were washed with PBS (1× phosphate buffer saline), trypsinized (0.05% trypsin-EDTA, Cat. #25300062, Gibco), and kept in 1×PBS on ice. […] 100,000 total events were recorded for each condition. Data was analysed and compensated using the FlowJo package (FLOWJO LLC). To calculate an EYFP activation score which integrates both reporter fluorescence intensity and % of activated cells the following formula was used as previously described (Xie et al., 2011). […]
The numerator (% EYFP^+ve×EYFP^mean) provides a weighted mean fluorescence accounting both for the strength of reporter activation (EYFP^mean) as well as population level activation (% EYFP^+ve), which penalizes OFF-state leakage. […]

T1 sequence (Q92633 with tags, fused parts or gaps): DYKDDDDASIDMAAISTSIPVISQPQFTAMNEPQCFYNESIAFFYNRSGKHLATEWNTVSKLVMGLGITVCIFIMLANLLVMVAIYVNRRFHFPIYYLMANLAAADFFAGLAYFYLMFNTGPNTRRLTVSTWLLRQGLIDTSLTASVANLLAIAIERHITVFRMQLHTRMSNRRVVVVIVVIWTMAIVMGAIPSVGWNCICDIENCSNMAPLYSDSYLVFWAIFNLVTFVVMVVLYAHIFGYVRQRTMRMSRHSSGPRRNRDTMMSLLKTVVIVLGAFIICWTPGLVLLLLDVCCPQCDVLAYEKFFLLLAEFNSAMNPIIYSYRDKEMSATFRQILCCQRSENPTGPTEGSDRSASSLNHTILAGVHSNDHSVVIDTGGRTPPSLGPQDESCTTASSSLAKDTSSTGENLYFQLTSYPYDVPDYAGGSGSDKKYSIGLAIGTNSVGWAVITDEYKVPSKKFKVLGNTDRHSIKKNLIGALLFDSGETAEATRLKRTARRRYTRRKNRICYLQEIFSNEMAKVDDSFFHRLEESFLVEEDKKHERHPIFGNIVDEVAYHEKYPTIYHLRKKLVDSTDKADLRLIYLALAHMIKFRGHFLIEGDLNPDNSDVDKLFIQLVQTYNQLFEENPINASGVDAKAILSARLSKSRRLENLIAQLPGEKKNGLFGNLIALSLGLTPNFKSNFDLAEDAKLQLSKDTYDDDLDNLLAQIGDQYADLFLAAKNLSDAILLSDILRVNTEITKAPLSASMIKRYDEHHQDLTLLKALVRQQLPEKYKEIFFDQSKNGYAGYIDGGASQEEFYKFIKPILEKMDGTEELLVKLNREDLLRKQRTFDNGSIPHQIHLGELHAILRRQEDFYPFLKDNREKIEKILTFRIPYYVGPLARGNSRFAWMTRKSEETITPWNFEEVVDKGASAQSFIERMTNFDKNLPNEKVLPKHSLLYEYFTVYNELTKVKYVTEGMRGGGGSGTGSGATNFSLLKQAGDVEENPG
T1 sequence (Q92633 with tags, fused parts or gaps): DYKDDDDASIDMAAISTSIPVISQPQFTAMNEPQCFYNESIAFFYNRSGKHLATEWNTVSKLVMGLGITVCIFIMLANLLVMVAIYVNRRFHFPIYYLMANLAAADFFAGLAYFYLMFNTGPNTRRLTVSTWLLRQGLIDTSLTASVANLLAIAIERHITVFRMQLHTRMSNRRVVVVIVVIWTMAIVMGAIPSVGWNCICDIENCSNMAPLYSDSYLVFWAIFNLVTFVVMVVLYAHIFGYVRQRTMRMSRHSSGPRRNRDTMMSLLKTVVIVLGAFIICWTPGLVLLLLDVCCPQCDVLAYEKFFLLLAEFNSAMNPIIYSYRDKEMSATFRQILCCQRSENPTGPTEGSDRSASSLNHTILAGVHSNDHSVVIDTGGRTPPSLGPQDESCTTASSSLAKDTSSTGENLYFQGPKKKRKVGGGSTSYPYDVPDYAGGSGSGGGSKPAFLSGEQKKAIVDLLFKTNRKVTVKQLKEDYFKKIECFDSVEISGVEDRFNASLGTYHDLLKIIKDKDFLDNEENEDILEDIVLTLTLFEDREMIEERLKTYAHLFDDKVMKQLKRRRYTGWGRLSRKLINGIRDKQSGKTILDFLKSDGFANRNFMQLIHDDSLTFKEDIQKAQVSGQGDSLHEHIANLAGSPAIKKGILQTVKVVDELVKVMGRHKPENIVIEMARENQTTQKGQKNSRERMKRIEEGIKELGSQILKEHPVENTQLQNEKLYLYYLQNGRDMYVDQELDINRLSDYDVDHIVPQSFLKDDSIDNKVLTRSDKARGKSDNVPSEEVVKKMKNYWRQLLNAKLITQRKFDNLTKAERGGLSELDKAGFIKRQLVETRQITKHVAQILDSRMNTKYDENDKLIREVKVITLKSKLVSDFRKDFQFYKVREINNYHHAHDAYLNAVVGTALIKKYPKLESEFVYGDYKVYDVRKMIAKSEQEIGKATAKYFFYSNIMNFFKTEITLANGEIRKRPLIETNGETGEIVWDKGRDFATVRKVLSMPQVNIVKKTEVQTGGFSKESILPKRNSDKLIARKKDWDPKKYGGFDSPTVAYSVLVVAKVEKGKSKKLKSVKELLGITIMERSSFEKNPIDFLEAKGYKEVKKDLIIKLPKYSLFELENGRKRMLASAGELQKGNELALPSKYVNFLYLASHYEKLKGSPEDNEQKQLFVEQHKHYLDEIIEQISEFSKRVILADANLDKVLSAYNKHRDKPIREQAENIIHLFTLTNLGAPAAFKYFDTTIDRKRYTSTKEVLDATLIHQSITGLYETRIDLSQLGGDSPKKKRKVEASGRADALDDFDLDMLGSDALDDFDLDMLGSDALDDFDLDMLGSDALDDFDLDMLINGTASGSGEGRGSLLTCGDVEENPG

Substance 1-oleoyl lysophosphatidic acid [LPA] has an EC50 of 1820 nM.
